According to US20120093806A1, “ANTITUMOR COMBINATIONS CONTAINING ANTIBODIES RECOGNIZING SPECIFICALLY CD38 AND CYTARABINE” (SANOFI-AVENTIS, priority 2008, published 2012):
“And” between values parts separate entries of the source, which are not always exact repeats. Identical values can stand only once. Like-named read-outs stand apart in the source and are kept apart here.

Key:
[1] = system: human T-cell acute lymphoblastic leukemia (T-ALL) cell line, DND-41; assay: Antitumor efficacy against advanced DND-41 tumors implanted in SCID mice; type: in vivo; details: days 18, 21, 24, 27; for TFS = tumor free survivors: day 160; for T-C = tumor growth delay: median time to reach 750 mg
Description: This efficacy may be quantified, for example, by the log10 cell kill, which is determined according to the following formula:
log10 cell kill=T−C (days)/3.32×Td
in which T−C represents the tumor growth delay, which is the median time in days for the tumors of the treated group (T) and the tumors of the control group (C) to reach a predetermined value (1 g for example), and Td represents the time in days needed for the volume of the tumor to double in the control animals [T. H. Corbett et al., Cancer, 40: 2660-2680 (1977); F. M. Schabel et al., Cancer Drug Development, Part B, Methods in Cancer Research, 17: 3-51, New York, Academic Press Inc. (1979)]. A product is considered to be active if log10 cell kill is greater than or equal to 0.7. A product is considered to be very active if log10 cell kill is greater than 2.8.
The tumors are measured 1 to 5 times a week, depending on the tumor doubling time, until the tumor reaches approximately 2 g, or until the animal dies (if this occurs before the tumor reaches 2 g). The animals are necropsied immediately after euthanasia or death.
Tumor doubling time=3.4 days.

[2] = days 18, 21, 24, 27; for BWC = body weight change: day in parentheses in cell
Description: The animals subjected to the experiment, generally mice, are subcutaneously grafted bilaterally with 30 to 60 mg of a tumor fragment on day 0. The animals bearing tumors are randomized based on their tumor size before being subjected to the various treatments and controls. Chemotherapy begins when tumors have reached a predetermined size after grafting, depending on the type of tumor, and the animals are observed every day. […] The groups are then weighed once or twice a week until the end of the trial.
The selected tumor model was a transplantable human T-cell acute lymphoblastic leukemia (T-ALL) cell line, DND-41, implanted in SCID mice.
Hu38SB19 was formulated in phosphate buffer saline, without Ca^2+ and Mg^2+, pH7.4. Hu38SB19 was administered intravenously on days 18, 21, 24, 27 after tumor implantation.

[3] = hu38SB19 40.0 mg/kg/inj IV (total 160.0)
[4] = Palmo Ara-C 22.3 mg/kg/inj SC (total 89.2)
[5] = Palmo Ara-C 36.0 mg/kg/inj SC (total 144.0)
[6] = Palmo Ara-C 58.0 mg/kg/inj SC (total 232.0)

## hu38SB19: humanized 38SB19 anti-CD38 antibody; VH SEQ ID NO: 66, VL chosen from SEQ ID NOS: 62 and 64
[1]; [3]
  log10 cell kill: 0.5
  TFS = tumor free survivors: 0/6
  T-C = tumor growth delay: 6.1 days
[1]; hu38SB19 40.0 mg/kg/inj IV (total 160.0), highest dose tested, 40 mg/kg
  comment (activity class): HDT—Inactive
[1]; hu38SB19 40.0 mg/kg/inj IV (total 160.0), highest dose tested, listed as hu38 DB19
  comment (activity class): not active
[2]; [3]
  drug death (deaths/mice treated): 0/6
  BWC = body weight change: −2.1 (19)

## CCCCCCCCCCCCCCCC(=O)Nc1ccn([C@@H]2O[C@H](CO)[C@@H](O)[C@@H]2O)c(=O)n1 [Palmo Ara-C]
[1]; [4]
  comment (activity class): Active
  log10 cell kill: 2.0
  TFS = tumor free survivors: 0/6
  T-C = tumor growth delay: 22.1 days
[1]; [5]
  log10 cell kill: 4.3
  TFS = tumor free survivors: no TFS and 0/6
  T-C = tumor growth delay: 48.6 days
[1]; [6]
  log10 cell kill: 5.4
  TFS = tumor free survivors: 3/6
  T-C = tumor growth delay: 60.5 days
[1]; Palmo Ara-C 58.0 mg/kg/inj SC (total 232.0), HNTD
  comment (activity class): HNTD—highly active
[2]; [4]
  BWC = body weight change: −0.5 (32)
[2]; [5]
  BWC = body weight change: −4.6 (30)
[2]; [6]
  BWC = body weight change: −6.1 (31)
[2]; Palmo Ara-C 96.3 mg/kg/inj SC (total 385.2)
  BWC = body weight change: −26.6 (31)
[2]; Palmo Ara-C alone, SC
  highest nontoxic dose (HNTD): 58.0 mg/kg/inj
